From publication PMC9169222, “Impedance-Based Phenotypic Readout of Transporter Function: A Case for Glutamate Transporters” (Frontiers in Pharmacology, 2022)
Where a name gives a salt, the structure may show the parent alone.

Biological target: T1, EAAT1 (JumpIn-EAAT1 cells) (Homo sapiens, UniProt P43003)
T1 construct: expressed in transfected cells; host or cells: Jump In T-REx HEK 293
Experiment: Impedance-based phenotypic assay (xCELLigence) on JumpIn-EAAT1 cells
Assay type: cell-based
Details: net AUC 0–120 min
Experimental: In short, cells are cultured in medium on gold-plated electrodes in microwell E-plates.
Assays were performed at 37°C and 5% CO2 in 96-well PET E-plates in a total volume of 100 µl per well. Prior to cell seeding, the baseline impedance (Z0) was measured in the recording station in 40 µl (two compound additions) or 45 µl (one compound addition) medium in the presence (+) or absence (−) of 1 μg/ml dox. All compounds were diluted in phosphate-buffered saline (PBS) and added in 5 µl per addition using a VIAFLO 96 handheld electronic 96 channel pipette (INTEGRA Biosciences, Tokyo, Japan). When DMSO was used as a solvent for a compound, the final amount of DMSO was kept at 0.1% per well and was included in the vehicle (PBS/DMSO). All conditions were tested at two technical replicates per plate.
Transiently transfected JumpIn-EAAT1 cells were detached using only PBS/EDTA. The E-plate was left to rest at room temperature for 30 min prior to replacement in the recording station at 37°C and 5% CO2. Cell growth was recorded overnight for 22 h. If a pretreatment was required for the experiment, the cells were pretreated after 22 h with either a concentration of inhibitor or vehicle (PBS/DMSO) and cells were monitored for 60 min. For GPCR antagonist experiments, a maximum concentration of LY341495 (1 µM) was used. […] After the pretreatment, cells were stimulated with substrate or vehicle (PBS). […] After stimulation the impedance was measured for at least 2 h. […] Properly washed plates were re-used up to two times.
Experimental data was recorded using RTCA Software v2.0 or v2.1.1 (ACEA Biosciences). In the RTCA Software CI values were normalized to the time point prior to substrate/agonist stimulation resulting in normalized Cell Index (nCI) values. The nCI data were exported and subsequent analyses and data visualizations were done using GraphPad Prism v9 (GraphPad Software, San Diego, CA, United States). In all experiments, nCI values of vehicle-only conditions were subtracted from all other conditions to correct for vehicle-induced, substrate-independent effects. […] The potency values of substrates and inhibitory potencies of EAAT inhibitors were determined by fitting the net AUC data to a sigmoidal concentration-effect curve with a variable slope.

T1 sequence (P43003 whole entry): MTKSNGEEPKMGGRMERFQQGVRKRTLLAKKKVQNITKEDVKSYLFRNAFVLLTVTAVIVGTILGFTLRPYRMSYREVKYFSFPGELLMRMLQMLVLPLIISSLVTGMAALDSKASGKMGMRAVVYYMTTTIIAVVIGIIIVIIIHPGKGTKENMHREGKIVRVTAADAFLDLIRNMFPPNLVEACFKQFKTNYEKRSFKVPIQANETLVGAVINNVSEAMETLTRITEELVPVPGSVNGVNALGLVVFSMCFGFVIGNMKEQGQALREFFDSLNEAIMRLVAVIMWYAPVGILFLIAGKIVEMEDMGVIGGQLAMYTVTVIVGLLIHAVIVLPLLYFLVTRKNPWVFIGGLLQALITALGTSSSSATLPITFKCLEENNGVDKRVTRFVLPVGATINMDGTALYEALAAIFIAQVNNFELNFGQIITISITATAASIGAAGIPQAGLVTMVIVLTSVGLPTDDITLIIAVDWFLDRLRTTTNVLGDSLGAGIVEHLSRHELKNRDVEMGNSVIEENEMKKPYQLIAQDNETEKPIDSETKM

N[C@@H](CCC(=O)O)C(=O)O [L-glutamate, L-glutamic acid monosodium salt monohydrate]
Substrate pEC50 ± SEM (JumpIn-EAAT1, +dox): 3.4 ± 0.0
EC50 (JumpIn-EAAT1, −dox, read-out: Substrate pEC50 ± SEM (converted)): 63.1 µM
